This passage reports Ki results from ChEMBL document CHEMBL5725591, “Tricyclic PI3K inhibitor compounds and methods of use” (2018).

The target in the assay is Phosphatidylinositol 4,5-bisphosphate 3-kinase catalytic subunit alpha isoform (Homo sapiens, UniProt P42336). The experiment in a line: p110alpha (alpha) PI3K Binding Assay: PI3K Binding assays are intended for determining the biochemical potency of small molecule PI3K inhibitors. The PI3K lipid kinase reaction is performed in the presence of PIP2:3PS lipid substrate (Promega #V1792) and ATP. Following the termination if the kinase reaction, turnover of ATP to ADP by the phosphorylation of the lipid substrate is detected using the Promega ADP-Glo¿ (Promega #V1792) assay. (ADP-Glo first removes unused ATP, then detects ADP through luciferase.)
Sequence of Phosphatidylinositol 4,5-bisphosphate 3-kinase catalytic subunit alpha isoform (P42336 whole entry, canonical isoform): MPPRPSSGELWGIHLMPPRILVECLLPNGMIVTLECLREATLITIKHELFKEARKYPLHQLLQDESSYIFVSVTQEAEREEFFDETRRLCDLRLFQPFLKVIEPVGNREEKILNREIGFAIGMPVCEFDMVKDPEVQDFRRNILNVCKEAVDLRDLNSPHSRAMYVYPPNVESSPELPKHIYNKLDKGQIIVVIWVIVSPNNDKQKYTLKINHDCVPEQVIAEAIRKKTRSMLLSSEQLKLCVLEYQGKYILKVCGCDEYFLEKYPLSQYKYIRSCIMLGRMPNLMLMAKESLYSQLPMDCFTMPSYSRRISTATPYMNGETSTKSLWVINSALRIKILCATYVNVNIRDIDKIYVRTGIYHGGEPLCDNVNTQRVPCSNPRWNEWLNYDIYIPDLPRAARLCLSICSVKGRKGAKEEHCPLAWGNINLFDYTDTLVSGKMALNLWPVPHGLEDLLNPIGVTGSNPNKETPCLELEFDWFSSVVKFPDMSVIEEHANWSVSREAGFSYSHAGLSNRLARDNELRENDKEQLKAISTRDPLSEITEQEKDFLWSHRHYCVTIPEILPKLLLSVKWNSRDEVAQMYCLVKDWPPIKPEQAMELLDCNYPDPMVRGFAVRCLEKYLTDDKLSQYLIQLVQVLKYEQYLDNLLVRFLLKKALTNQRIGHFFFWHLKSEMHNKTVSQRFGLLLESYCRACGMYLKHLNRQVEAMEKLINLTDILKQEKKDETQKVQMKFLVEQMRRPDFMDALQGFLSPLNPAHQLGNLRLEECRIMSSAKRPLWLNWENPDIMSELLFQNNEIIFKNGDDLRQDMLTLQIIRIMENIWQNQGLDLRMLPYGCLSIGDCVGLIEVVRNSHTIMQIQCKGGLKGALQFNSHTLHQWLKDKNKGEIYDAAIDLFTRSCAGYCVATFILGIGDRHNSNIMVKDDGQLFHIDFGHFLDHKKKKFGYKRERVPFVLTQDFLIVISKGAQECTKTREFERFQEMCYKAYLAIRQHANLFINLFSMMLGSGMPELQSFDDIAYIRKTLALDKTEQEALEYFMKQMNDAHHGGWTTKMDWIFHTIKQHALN
The Ki is a measure of affinity in units of concentration, obtained from inhibition or displacement. With `Cn1cc(-c2nc3cc(N[C@H](C(N)=O)C4CC4)cc4c3n2CCCO4)cn1`, the Ki worked out at 359 nM.

As for `Cn1ncnc1-c1nc2cc(N[C@H](C(N)=O)C3CC3)cc3c2n1CCCO3`, the Ki stood at 396 nM. The same measure for `NC(=O)[C@@H](Nc1cc2c3c(c1)nc(-c1ccc4c(n1)OCCO4)n3CCCO2)C1CC1`: 24.1 nM; for `CC[C@H](Oc1cc2c3c(c1)nc(-c1ccc4oc(N)nc4c1)n3CCCO2)C(N)=O` (single isomer, unassigned): 0.27 nM. `CC[C@@H](Oc1cc2c3c(c1)nc(-c1ccc4oc(N)nc4c1)n3CCCO2)C(N)=O` (single isomer, unassigned): the Ki amounted to 0.8 nM.
